What is called CC50 is the concentration that lowers cell viability or growth by half. In general, IC50 refers to the concentration needed to halve the response being measured. What is called IC90 is the concentration needed for an effect of 90%.

Where two headings read alike, the source gives them in different places.

The values that follow come from PMC7285321, “Evaluation of Indolocarbazoles from Streptomyces sanyensis as a Novel Source of Therapeutic Agents against the Brain-Eating Amoeba Naegleria fowleri” (Microorganisms, 2020).

Series [1] can be described thus: Cytotoxicity assay, alamarBlue. It counts as cell-based. The conditions noted are these: mouse, 37 °C, mean ± SD, read-out: Murine Macrophage J774.A1 CC50. As to the method:
(§1) Evaluation of in vitro toxicity was carried out using the murine macrophage J774A.1 cell line (ATCC # TIB-67, LG Promochem, Barcelona, Spain) which was routinely cultured in Dulbecco’s Modified Eagle’s medium (DMEM, w/v) supplemented with 10% (v/v) FBS and 10 µg/mL of gentamicin (Sigma–Aldrich, Madrid, Spain), at 37 °C in a 5% CO2 atmosphere as previously described.
(§2) Cytotoxicity of the compounds was evaluated using toxicity assays established in our laboratory based on the evaluation of the toxicity induced in a murine macrophages J774.A1 cell line (ATCC® TIB-67™). Concisely, different concentrations of the ICZs were incubated with the cell line, and alamarBlue® reagent (10% of medium volume) was placed in each well and incubated for 24 h, at 37 °C under 5% CO2 conditions. Results were examined as described in Section 2.4.1.
A general note: Resazurin is reduced to fluorescent resorufin, in cell work by metabolically active cells.

For series [2], the system named is Naegleria fowleri ATCC 30808 trophozoites. Put plainly: In vitro amoebicidal activity, alamarBlue colorimetric assay, trophozoites. The conditions noted are these: for SI (CC50/IC50): CC50 J774A.1 / IC50 N. fowleri ATCC 30808; for IC50: Naegleria fowleri. The method, then: (§3) Amoebae were grown at 37 °C in axenic conditions in 2% (w/v) bactocasitone medium (Thermo Fisher Scientific, Madrid, Spain) supplemented with 10% (v/v) foetal bovine serum (FBS), […] of penicillin G and 0,5 mg/mL of streptomycin sulphate (Sigma-Aldrich, Madrid, Spain). As required by the Spanish Government biosafety guidelines for this pathogen, amoebic strains were cultured in a biological security facility level 3 at the Instituto Universitario de Enfermedades Tropicales y Salud Pública de Canarias, Universidad de La Laguna.
(§4) The in vitro activity of the four ICZs included in this study was evaluated against trophozoites of two Naegleria fowleri type strains using a colorimetric assay. Amoebae (2 × 10^5 cells/mL) were placed in a sterile 96-well microtiter plate. Next, 50 μL of a serial dilution of each of the ICZs (in N. fowleri culture medium) was added to the plate. In all the activity assays, 2% DMSO was used to dissolve the highest dose of the molecules to prevent generation of any effects in the amoebic cells. Negative controls were also included in the assays, consisting of the addition of medium alone to the seeded trophozoites as previously described. Miltefosine and amphotericin B were used as positive controls whereas the addition of medium alone to the seeded trophozoites was considered as the negative control. Lastly, 10% of the alamarBlue® reagent was placed in each well, and plates were incubated with slight agitation for 48 h at 37 °C. After that, activity plates were evaluated with an EnSpire® Multimode Plate Reader (Perkin Elmer, Madrid, Spain) using a wavelength of 570 nm and a reference wavelength of 630 nm.
(§5) The IC90 values of the compounds were calculated using a GraphPad calculator (GraphPad Software, San Diego, CA, USA) based on the calculated IC50 and the Hill Slope (H). All experiments were performed in triplicate, and the mean values were also calculated.

The test system of series [3] is murine macrophage J774A.1 cell line. Put plainly: Cytotoxicity assay, alamarBlue. It counts as cell-based. The conditions noted are these: 24 h, 37 °C, mean ± SD; read-out: Murine Macrophage J774.A1 CC50. As to the method:
as §1, §2

In series [4] the test system is Naegleria fowleri ATCC 30215 trophozoites. Put plainly: In vitro amoebicidal activity, alamarBlue colorimetric assay, trophozoites. It is filed as cell-based. The conditions noted are these: for IC50: ATCC30215, trophozoites, 48 h, 37 °C, mean ± SD, read-out: N. fowleri ATCC 30215 IC50. As to the method:
as §3, §4, §5

Series [5] concerns Naegleria fowleri trophozoites. Put plainly: Mitochondrial membrane potential, JC-1 assay. It is filed as cell-based. The conditions noted are these: IC90, 24 h; similar for both strains. As to the method: The evaluation of mitochondrial function disruption in STS-treated amoebae was carried out using the Celltiter-Glo® Luminescent Cell Viability Assay (Promega Biotech Ibérica, Madrid, Spain) and the JC-1 Mitochondrial Membrane Potential Detection Kit (Cayman Chemicals, Vitro SA, Madrid, Spain). The first kit detects the levels of ATP in STS-treated cells in comparison to non-treated cells.
Images were captured using an EVOS FL Cell Imaging System AMF4300 (Life Technologies, Madrid, Spain). The obtained staining pattern permitted the identification of two groups in a cellular population: live cells which would show only red fluorescence and cells presenting low mitochondrial membrane potential (undergoing PCD) which would show an intense level of green and red fluorescence.

For series [6], the system named is Naegleria fowleri trophozoites. Kind of series: Intracellular ROS generation, CellROX Deep Red assay. The conditions noted are these: IC90, 24 h; similar for both strains. It counts as cell-based. As to the method:
Next, cells were exposed to 5 μM CellROX Deep Red for 30 min at 37 °C in the dark and observed after using the EVOS FL Cell Imaging System AMF4300 (Life Technologies, Madrid, Spain). The presence of intracellular ROS was shown by the detection of high red fluorescence in the cells.

The test system of series [7] is Naegleria fowleri trophozoites. Put plainly: Detection of DNA/chromatin condensation, Hoechst 33342/propidium iodide double stain. The conditions noted are these: IC90, 24 h; similar for both strains. It counts as cell-based. The source says:
The double-stain apoptosis detection kit constituted by Hoechst 33342 and propidium iodide (PI) (Life Technologies, Madrid. Spain) and an EVOS FL Cell Imaging System AMF4300 (Life Technologies, Madrid, Spain) were used in these experiments as per the manufacturer’s instructions. […] The assay is able to separate three groups of cell populations: dead cells which show an intense red and low-blue fluorescence; healthy cells showing a low level of fluorescence, and cells in PCD presenting intense blue fluorescence (condensed chromatin/DNA).

Series [8] concerns Naegleria fowleri trophozoites. Kind of series: Cellular membrane damage, SYTOX Green assay. It counts as cell-based. The conditions noted are these: IC90, 24 h; both strains. As to the method: The SYTOX Green assay (Life Technologies, Madrid, Spain) allows the detection of alterations in the permeability of the cell membrane. The SYTOX Green dye binds to DNA, showing intense green fluorescence, only if the plasmatic membrane is damaged and allows it to enter the cytoplasm. […] After 24 h, 1 μM SYTOX Green (final concentration) was added to the cell culture and incubated for 15 min. Next, cells were examined in an EVOS FL Cell Imaging System AMF4300 (Life Technologies, Madrid, Spain).

Setting [9] is: ATCC30808, 48 h, read-out: N. fowleri ATCC 30808 IC50.

As to `CO[C@@H]1C(=O)C[C@H]2O[C@]1(C)n1c3ccccc3c3c4c(c5c6ccccc6n2c5c31)C(=O)NC4` [4′D4′OSTS (3), 4′-demethylamino-4′-oxostaurosporine], the CC50 at 24 h in series [1] (J774A.1 macrophage cell line) was over 20000 nM. Further, in series [2], the “Activity against N. fowleri, in words” value is given as “only active against the N. fowleri ATCC 30808 strain” and the “SI (CC50/IC50)” value is over 1.9. In series [2] (setting [9]), the IC50 turned out to be 10800 ± 2920 nM.
Regarding `CN[C@@H]1C[C@H]2O[C@@](C)([C@@H]1OC)n1c3ccccc3c3c4c(c5c6ccccc6n2c5c31)C(=O)NC4=O` [7OSTS (2), 7-oxostaurosporine], the CC50 in series [3] stood at 5200 ± 1750 nM. Besides, in series [2], the “SI (CC50/IC50)” value is 4.1. In addition, the figures for the half-inhibitory concentration (IC50) in series [2] (setting [9]) and in series [4] were 1280 ± 350 nM and 1070 ± 230 nM, respectively.
Consider `C[C@@H]1[C@H](O)[C@@H](C)/C=C/C=C/C=C/C=C/C=C/C=C/C=C/[C@H](O[C@@H]2O[C@H](C)[C@@H](O)[C@H](N)[C@@H]2O)C[C@@H]2O[C@](O)(C[C@@H](O)C[C@@H](O)[C@H](O)CC[C@@H](O)C[C@@H](O)CC(=O)O[C@H]1C)C[C@H](O)[C@H]2C(=O)O` [Amphotericin B], for which the cytotoxic concentration (CC50) at 24 h in series [1] (J774A.1 macrophage cell line) was at least 200000 nM. For the same molecule, in series [2], the “SI (CC50/IC50)” value is given as at least 1666.7. Moreover, the results for the half-maximal inhibitory concentration (IC50) in series [2] (setting [9]) and in series [4] were 120 ± 30 nM and 160 ± 20 nM, respectively.
Regarding `O=C1NC(=O)c2c1c1c3ccccc3[nH]c1c1[nH]c3ccccc3c21` [Arcyriflavin A (9), arcyriaflavin A], the “Activity against N. fowleri, in words” value in series [2] was “no activity was observed”. Also, the IC50 in series [2] (setting [9]) was over 20000 nM.
With `COC(=O)C1(O)CC2OC1(C)n1c3ccccc3c3c4c(c5c6ccccc6n2c5c31)C(=O)NC4` (centres unmarked) [K252a (6), K252a], the CC50 at 24 h in series [1] stood at 1070 ± 210 nM. The “SI (CC50/IC50)” value in series [2] amounted to 3.2. Also, the concentration for half-maximal inhibition (IC50) in series [2] (setting [9]) was found to be 340 ± 90 nM; in series [2] (ATCC30808, read-out: Activity (IC50) N. fowleri ATCC 30808, text), 338 ± 90 nM; in series [4] it was 120 ± 30 nM.
Regarding `CC12OC(CC1(O)C(=O)O)n1c3ccccc3c3c4c(c5c6ccccc6n2c5c31)CNC4=O` (centres unmarked) [K252b (7), K252b], the IC50 in series [2] (setting [9]) is over 20000 nM.
Take `O=C1NCc2c1c1c3ccccc3[nH]c1c1[nH]c3ccccc3c21` [K252c (8), K252c]: in series [2], the “Activity against N. fowleri, in words” value is on record as “no activity was observed”. Moreover, the IC50 in series [2] (setting [9]) is over 20000 nM.
For the molecule `CCCCCCCCCCCCCCCCOP(=O)([O-])OCC[N+](C)(C)C` [Miltefosine, miltefosine], in series [1] (J774A.1 macrophage cell line), the CC50 at 24 h turned out to be 128000 ± 8850 nM. Besides, the “SI (CC50/IC50)” value in series [2] came out at 3.3.
For the molecule `CO[C@H]1[C@H](O)[C@@H](O)[C@H](n2c3c(Cl)cccc3c3c4c(c5c6cccc(Cl)c6[nH]c5c32)C(=O)NC4=O)O[C@@H]1CO` [Rebeccamycin (5), rebeccamycin], the “Activity against N. fowleri, in words” value in series [2] is on record as “not active”. For the same molecule, the IC50 in series [2] (setting [9]) is over 20000 nM.
With `COC1=C(C)O[C@@H]2C[C@@]1(OC)n1c3ccccc3c3c4c(c5c6ccccc6n2c5c31)C(=O)NC4` [SCZ B (4), streptocarbazole B], the CC50 at 24 h in series [1] (J774A.1 macrophage cell line) was over 20000 nM. Also, in series [2], the “Activity against N. fowleri, in words” value is “only active against the N. fowleri ATCC 30808 strain” and the “SI (CC50/IC50)” value was over 1.7. Moreover, in series [2] (setting [9]), the IC50 came to 11500 ± 310 nM.
Consider `CN[C@@H]1C[C@H]2O[C@@](C)([C@@H]1OC)n1c3ccccc3c3c4c(c5c6ccccc6n2c5c31)C(=O)NC4` [STS (1), staurosporine], for which, in series [5], the “Mitochondrial membrane potential (JC-1)” value is listed as “Mitochondrial potential collapse was observed”. Moreover, in series [6], the “Intracellular ROS (CellROX Deep Red)” value was “Increased levels of intracellular ROS”. In addition, the “Chromatin condensation (Hoechst stain)” value in series [7] was “the nuclei are intense blue”. In series [8], the “Plasmatic membrane permeabilization (SYTOX Green)” value is given as “caused plasmatic membrane permeabilization in both strains”. Further, the IC90 in series [4] (ATCC30215, calculated from IC50 and Hill slope, table footnote, unit inferred, read-out: IC90 N. fowleri ATCC 30215) was 970 nM.
